Conditions: Liquid, Pulse-echo method

FC(F)=C(F)C(F)(F)F [hexafluoropropene]
Conditions	speed of sound [m/s]
253.27 K, 1150 kPa	575.6
253.27 K, 10940 kPa	645.3
253.27 K, 25910 kPa	728.8
253.27 K, 52820 kPa	844.3
253.27 K, 75030 kPa	921.1
253.27 K, 100630 kPa	997.3
253.27 K, 125810 kPa	1063
253.27 K, 151420 kPa	1123.6
253.27 K, 174830 kPa	1174.3
253.27 K, 200450 kPa	1224.7
253.27 K, 250580 kPa	1315.5
253.27 K, 299650 kPa	1393.8
253.27 K, 350190 kPa	1468.5
253.27 K, 400740 kPa	1535.4
273.17 K, 1130 kPa	488.3
273.17 K, 10400 kPa	567.9
273.17 K, 25040 kPa	660.8
273.17 K, 50150 kPa	779.5
273.17 K, 75280 kPa	871.7
273.17 K, 100230 kPa	949
273.17 K, 125430 kPa	1017.1
273.17 K, 150270 kPa	1077.5
273.17 K, 175810 kPa	1133.8
273.17 K, 200700 kPa	1184.6
273.17 K, 250800 kPa	1276.7
273.17 K, 300450 kPa	1358.2
273.17 K, 350820 kPa	1432.3
273.17 K, 400090 kPa	1499.6
288.15 K, 1160 kPa	424.2
288.15 K, 5200 kPa	468.9
288.15 K, 10130 kPa	513.8
288.15 K, 25190 kPa	618
288.15 K, 50080 kPa	741.2
288.15 K, 75440 kPa	837.6
288.15 K, 100170 kPa	916.1
288.15 K, 125510 kPa	986.4
288.15 K, 150630 kPa	1048.4
288.15 K, 175250 kPa	1103.9
288.15 K, 200700 kPa	1156.6
288.15 K, 250380 kPa	1249
288.15 K, 300040 kPa	1331.1
288.15 K, 350970 kPa	1407.7
288.15 K, 400410 kPa	1475.2
303.15 K, 1990 kPa	370.7
303.15 K, 10090 kPa	463.9
303.15 K, 25160 kPa	576.7
303.15 K, 50920 kPa	709.3
303.15 K, 75370 kPa	804.5
303.15 K, 100560 kPa	886.5
303.15 K, 125410 kPa	956.2
303.15 K, 150900 kPa	1020.1
303.15 K, 175340 kPa	1075.6
303.15 K, 200830 kPa	1129
303.15 K, 250190 kPa	1221.9
303.15 K, 300750 kPa	1306.5
303.15 K, 350300 kPa	1381.1
303.15 K, 400020 kPa	1450.2
323.18 K, 2300 kPa	288.3
323.18 K, 10550 kPa	404.9
323.18 K, 28790 kPa	547
323.18 K, 50380 kPa	664.6
323.18 K, 75340 kPa	767.2
323.18 K, 101090 kPa	852.8
323.18 K, 125070 kPa	921.8
323.18 K, 150670 kPa	987.4
323.18 K, 175680 kPa	1045.2
323.18 K, 200750 kPa	1098.6
323.18 K, 250620 kPa	1193.8
323.18 K, 300400 kPa	1278
323.18 K, 350810 kPa	1355.4
323.18 K, 400580 kPa	1424.9
343.19 K, 4760 kPa	245.5
343.19 K, 8270 kPa	311.3
343.19 K, 10440 kPa	341.8
343.19 K, 50540 kPa	627.2
343.19 K, 75610 kPa	730.9
343.19 K, 100650 kPa	818.3
343.19 K, 125170 kPa	890.4
343.19 K, 150340 kPa	956.2
343.19 K, 175160 kPa	1014.7
343.19 K, 200290 kPa	1069
343.19 K, 250220 kPa	1165.9
343.19 K, 300620 kPa	1252
343.19 K, 350100 kPa	1327.9
343.19 K, 400370 kPa	1399.8
363.15 K, 10450 kPa	287
363.15 K, 25500 kPa	442
363.15 K, 50520 kPa	592.9
363.15 K, 75490 kPa	700.6
363.15 K, 100300 kPa	787.2
363.15 K, 125230 kPa	861.9
363.15 K, 150340 kPa	928.6
363.15 K, 175590 kPa	988.8
363.15 K, 200320 kPa	1042.8
363.15 K, 250610 kPa	1141.2
363.15 K, 300360 kPa	1226.7
363.15 K, 350690 kPa	1305.3
363.15 K, 400260 kPa	1376
383.16 K, 15690 kPa	310.6
383.16 K, 25690 kPa	407.4
383.16 K, 50530 kPa	562.3
383.16 K, 75940 kPa	673.9
383.16 K, 100500 kPa	761.1
383.16 K, 125630 kPa	837.2
383.16 K, 150460 kPa	903.4
383.16 K, 175770 kPa	964.4
383.16 K, 200740 kPa	1019.4
383.16 K, 250260 kPa	1116.8
383.16 K, 300690 kPa	1204.6
383.16 K, 350280 kPa	1282.6
383.16 K, 400510 kPa	1354.3
403.14 K, 16670 kPa	288.3
403.14 K, 25610 kPa	375.7
403.14 K, 50890 kPa	537.5
403.14 K, 75640 kPa	647.4
403.14 K, 100060 kPa	737.1
403.14 K, 125630 kPa	813.6
403.14 K, 150360 kPa	880.3
403.14 K, 175620 kPa	941.6
403.14 K, 200670 kPa	997.2
403.14 K, 250500 kPa	1096
403.14 K, 300660 kPa	1183.8
403.14 K, 350610 kPa	1262.3
403.14 K, 400280 kPa	1333.6
423.15 K, 19600 kPa	293.5
423.15 K, 25100 kPa	345.1
423.15 K, 50800 kPa	513
423.15 K, 75400 kPa	623.9
423.15 K, 100710 kPa	715.4
423.15 K, 125320 kPa	791.3
423.15 K, 150160 kPa	858.8
423.15 K, 175410 kPa	920.3
423.15 K, 200520 kPa	976.3
423.15 K, 250420 kPa	1075.9
423.15 K, 300390 kPa	1163.6
423.15 K, 350600 kPa	1243
423.15 K, 400920 kPa	1315.6
448.15 K, 25130 kPa	318.1
448.15 K, 50710 kPa	485
448.15 K, 75240 kPa	596.6
448.15 K, 100750 kPa	689.4
448.15 K, 125710 kPa	766.5
448.15 K, 150770 kPa	834.5
448.15 K, 175320 kPa	894.5
448.15 K, 200820 kPa	951.6
448.15 K, 250910 kPa	1051.8
448.15 K, 300780 kPa	1139.3
448.15 K, 350710 kPa	1218.3
448.15 K, 400820 kPa	1291.1
473.14 K, 25160 kPa	298.7
473.14 K, 50460 kPa	462.3
473.14 K, 75570 kPa	576.7
473.14 K, 100220 kPa	666.6
473.14 K, 125570 kPa	745.3
473.14 K, 150690 kPa	814
473.14 K, 175720 kPa	875.3
473.14 K, 200800 kPa	931.7
473.14 K, 250600 kPa	1031.5
473.14 K, 300640 kPa	1119.7
473.14 K, 350560 kPa	1199
473.14 K, 400750 kPa	1272

From the NIST ThermoML archive (doi:10.1021/je300652k)
